Patent US5618713A, “Mutants of human antithrombin III” (Behringwerke Aktiengesellschaft, priority 1989, dated 1997)

Experiments:
Format in all cases: biochemical
alpha-thrombin (human) = test: dependence of thrombin inactivation on the heparin concentration
Method: The two mutants were examined for their relative ability to inactivate thrombin as a function of the heparin concentration in the assay and compared with AT III plasma, AT III-WT and the mutant AT III-Lys49 (Tab. 5).
The assay was carried out under the following conditions: 0.02 U (antigen)/ml AT III (AT III plasma, AT III-WT or AT III-Mut) was preincubated with 0.3 IU/ml alpha-thrombin (human), 2 KIU/ml aprotinin (Behringwerke) and heparin (Hoffmann-LaRoche) in concentrations of 0-25 IU/ml in a volume of I ml at 37° C. for 5minutes. After addition of 100 μl of substrate reagent (2 mM HD-CHA-But-Arg-pNA), the change in extinction at 405 nm (37° C.) was followed kinetically. The maximum inhibition of alpha-thrombin at heparin saturation was set equal to 100%.
Tab. 5 indicates the heparin concentration at half-maximum thrombin inhibition (c 1/2) for AT III plasma, AT III-WT and various AT III mutants.

thrombin = test: heparin cofactor activity (Schrader et al. 1986), Berichrom test kit, excess heparin and thrombin; settings: purified protein, excess of heparin and thrombin
Method: As taught in Schrader et al., for the determination of the heparin cofactor activity of the AT III mutants with the test kit Berichrom® (Behringwerke AG, Marburg) a solution with the particular AT III mutant was incubated with an excess of heparin and thrombin. The produced AT III mutant-heparin-complex inhibits a part of the thrombin. The non-inactivated part of the thrombin cleaves the chromogenic substrate which was added to the solution and the amount of produced p-nitroaniline was measured at 405 nm photometrically.

bovine thrombin = test: progressive inhibitory activity (Hensen et al. 1963), rate of thrombin inactivation, clotting time; settings: purified protein, without heparin
Method: As taught in Hensen et al., progressive inhibiting activity is measured by an antithrombin III assay according to the principle that the material to be tested is incubated with thrombin. The rate of thrombin inactivation is measured and is used as a standard of antithrombin III activity.
In the procedure, a bovine thrombin solution of 50 N.I.H. units/ml, stored at-25° C., after being thawed is kept as melting ice; 0.2 ml of this thrombin solution with 0.6 ml veronal buffer, in a siliconized tube, is placed in a waterbath at 37° C. After a minimum of 2 minutes preheating, 0.2 ml of the material to tested (heat-defibrinated plasma or serum or a plasma fraction) is added to the mixture, and a chronometer is started. Exactly 1, 3 and 5 minutes later, 0.2 ml of this incubation mixture is added to 0.3 ml diluted bovine BaSO4 -plasma which has been pre-heated in the waterbath for 2-20 minutes and kept in non-siliconized tubes. The clotting times obtained are registered. The determination is made in duplicate.
If the antithrombin III activity in the sample tested is found to be low (less than 50% of the normal), then the determination should be repeated with the double quantity of the material to be tested (0.4 ml and 0.4 ml veronal buffer).
In the calculation, three times are obtained per determination. […]

[1] = target: elastase from human polymorphonuclear granulocytes (PMN elastase); test: PMN elastase inhibition assay (chromogenic substrate MeO-Suc-Ala-Ala-Pro-Val-pNA)
Method: The liberation of the paranitroaniline from the substrate was measured in a spectrophotometer as the increase in absorption at 405 nm within 15 min. This absorption was defined as 100% activity of the PMN elastase enzyme. The inhibitors were preincubated in concentrations increasing up to a maximum of 100 μg/ml with the enzyme for one hour. The enzyme reaction was then started with the substrate. The assay was carried out in 0.1 mol/1 HEPES, pH 7.5, +0.1 mol/1 sodium chloride. The substrate concentration was 0.13 mmol/1.

| IC50, inhibition of PMN elastase ([1]; 1 h preincubation with enzyme, substrate 0.13 mmol/l, 0.1 mol/l HEPES pH 7.5 + 0.1 mol/l NaCl, max. 100 μg/ml) [µg/mL] | type of inhibition of PMN elastase ([1]; KI determination) | Substance | C 1/2 Heparin, heparin concentration at half-maximum relative thrombin inhibition (alpha-thrombin (human); 0.02 U/ml AT III, 0.3 IU/ml alpha-thrombin, heparin 0-25 IU/ml, 5 min 37° C.) [mIU/ml] | inhibition of thrombin at low heparin concentrations (alpha-thrombin (human); compared in words) | HC, heparin cofactor activity (thrombin) [U/mg] | PI, progressive inhibitory activity (bovine thrombin) [U/mg] |
| --- | --- | --- | --- | --- | --- | --- |
|  |  | ATIII-Gln135: AT III mutant with Asn→Gln exchange in position 135, lacking a carbohydrate side-chain | 22 | better than that of AT III plasma and AT III-WT | 4.5 | 3.9 |
| 3.7 | non-competitive inhibition | alpha1 PI: reference inhibitor alpha1 protease inhibitor (alpha1 antitrypsin) |  |  |  |  |
